Results on one molecule are retold here after patent US10047084B2, “Imidazolone derivatives, pharmaceutical compositions and uses thereof” (BEIJING FORELANDPHARMA CO. LTD., priority 2013, dated 2018).

The test system of one assay is SK-BR3/BT474. Put plainly: CTG cell survival assay, SK-BR3/BT474. Type of assay: cell-based. The conditions noted are these: SK-BR3/BT474 cells. Put shortly:
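Cells were exposed to compounds in a 3-fold dilution series, with a top final concentration of 10 uM in 0.1% DMSO. Viable cells were quantified by CellTiter-Glo ATP luminescence.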

Assay [1] addresses PI3K-alpha (PIK3CA/PIK3R1) (Homo sapiens (Human), UniProt P42336). Briefly: PI3K-alpha enzyme activity assay (ADP Glo). The conditions noted are these: read-out: Activity of inhibiting PI3K enzyme IC50. Type of assay: biochemical. An excerpt:
3. PI3K-alpha Enzyme Activity Assay: PI3K alpha-ADP Glo Assay was employed. In the determination of PI3K enzyme activity, the detection kit supplied by Promega (Promega, Cat #: V9101) was used to detect the inhibition effect of the compounds on the activity of PI3K enzyme. The adenosine diphosphate produced during the whole enzymic reactions was quantified. The resulting values were used to calculate the activity of PI3K (Table 1).
3.1 Detection reagents: PIK3CA/PIK3R1 purchased from Invitrogen (Cat #: PV4788): The active kinase was diluted with kinase diluent III; and mixed with bovine serum albumin (BSA) in a ratio of 1:4 (5×dilution). The final BSA concentration was 50 ng/ml; and the compositions of Kinase Detection Solution I were: 25 mM MOPS, pH7.2, 12.5 mM β-glycerophosphate, 25 mM magnesium chloride, 5 mM EGTA, and 2 mM EDTA. Before use, 0.25 mM DTT was added to Kinase Detection Solution I; 250 μM adenosine triphosphate (ATP) Detection solution: 0.55 mg of ATP was dissolved in 4 ml of Kinase Detection Solution I, subdivided in 200 μl/vial and stored at −20° C. Substrate: Phosphatidylinositol (4,5) bis-phosphate; this substrate was diluted with Kinase Detection Solution I to a concentration of 125 μM. Final concentrations were: 10 μM PIP2, 10 μM ATP, 1% DMSO, and 0.0005-10 μM compounds.
a) Experimental Procedure: • 3.2.1 50 μL of the compounds diluted with dimethyl sulfoxide (DMSO) at a concentration of 100 μM were added to the 384-well dilution plate. The compounds were diluted with dimethyl sulfo de (DMSO) in a ratio of 1:3 (10 dilution concentrations plus 1 zero concentration). • 3.2.2 5 μL of the diluted compounds were transferred to the corresponding 384-well black Proxi plate (containing 47.5 μL of detection solution/well), and shaked for several seconds. • 3.2.3 2 μL of 2.5×PI3K working solution was added to 384-well black Proxi plate. • 3.2.4 2 μL of the diluted compounds were added to the detection plate (3 wells for each concentration). • 3.2.5 The plate was incubated at room temperature for 2 h. • 3.2.6 5 μL of ADP Glo Reagent was added. • 3.2.7 The plate was incubated at room temperature for 40 minutes. • 3.2.8 10 μL of the kinase detection reagent was added. • 3.2.9 The plate was incubated at room temperature for 40 minutes. • 3.2.10 The activity was detected by using Envision Reader.
The inhibition of the mTOR […] activity by the compounds ranges in 0.5 to several hundreds nanomoles, see Table 1.

Another assay has as its target mTOR kinase (Homo sapiens (Human), UniProt P42345). Put plainly: mTOR kinase activity assay (TR-FRET, GFP-4EBP1 substrate). The assay is classed as biochemical. The conditions noted are these: read-out: Enzyme (mTOR) IC50. On the procedure:
1. mTOR Kinase Activity Assay: The inhibition of the mTOR protein kinase activity by the compounds was determined by the enzymatic activity assay in vitro. The detection kit supplied by Invitrogen was used to detect the inhibition of the activity of the mTOR […]. The principle of the assay was as follows: mTOR kinase, fluorescein-labeled substrate and ATP were mixed, and after the reaction, EDTA and terbium-labeled first antibody were added. During the chemical reaction process of the mTOR kinase, the antibody recognized the phosphorylated and fluorescein-labeled substrate, and then the “time-resolved fluorescence resonance energy transfer” (TR-FRET) effect was enhanced. TR-FRET effect was calculated as the ratio of signals from the acceptor fluorescein to signals from the donor terbium. The amount of the antibody bound to the tracer was directly proportional to the amount of the phosphorylated substrate after the reaction. In this way, the kinase activity can be detected. In this assay, the substrate of the mTOR kinase was green fluorescent protein-coupled 4E binding protein 1 (GFP-4EBP1).
1.1 Materials and Instruments:
4-Hydroxyethylpiperazine ethanesulfonic acid (HEPES, Sigma, Cat# SH3375), ethylene glycol-bis-(2-aminoethylether)-tetraacetic acid (EGTA, Sigma, Cat# E3889), manganese chloride (MnCl2, Sigma, Cat# M1787), Tween-20 (Tween-20, Amresco), 1,4-dithiothreitol (DTT, Merck, CB233155),

Some results are limits rather than exact numbers.

Chain of mTOR kinase (P42345 1360-2549): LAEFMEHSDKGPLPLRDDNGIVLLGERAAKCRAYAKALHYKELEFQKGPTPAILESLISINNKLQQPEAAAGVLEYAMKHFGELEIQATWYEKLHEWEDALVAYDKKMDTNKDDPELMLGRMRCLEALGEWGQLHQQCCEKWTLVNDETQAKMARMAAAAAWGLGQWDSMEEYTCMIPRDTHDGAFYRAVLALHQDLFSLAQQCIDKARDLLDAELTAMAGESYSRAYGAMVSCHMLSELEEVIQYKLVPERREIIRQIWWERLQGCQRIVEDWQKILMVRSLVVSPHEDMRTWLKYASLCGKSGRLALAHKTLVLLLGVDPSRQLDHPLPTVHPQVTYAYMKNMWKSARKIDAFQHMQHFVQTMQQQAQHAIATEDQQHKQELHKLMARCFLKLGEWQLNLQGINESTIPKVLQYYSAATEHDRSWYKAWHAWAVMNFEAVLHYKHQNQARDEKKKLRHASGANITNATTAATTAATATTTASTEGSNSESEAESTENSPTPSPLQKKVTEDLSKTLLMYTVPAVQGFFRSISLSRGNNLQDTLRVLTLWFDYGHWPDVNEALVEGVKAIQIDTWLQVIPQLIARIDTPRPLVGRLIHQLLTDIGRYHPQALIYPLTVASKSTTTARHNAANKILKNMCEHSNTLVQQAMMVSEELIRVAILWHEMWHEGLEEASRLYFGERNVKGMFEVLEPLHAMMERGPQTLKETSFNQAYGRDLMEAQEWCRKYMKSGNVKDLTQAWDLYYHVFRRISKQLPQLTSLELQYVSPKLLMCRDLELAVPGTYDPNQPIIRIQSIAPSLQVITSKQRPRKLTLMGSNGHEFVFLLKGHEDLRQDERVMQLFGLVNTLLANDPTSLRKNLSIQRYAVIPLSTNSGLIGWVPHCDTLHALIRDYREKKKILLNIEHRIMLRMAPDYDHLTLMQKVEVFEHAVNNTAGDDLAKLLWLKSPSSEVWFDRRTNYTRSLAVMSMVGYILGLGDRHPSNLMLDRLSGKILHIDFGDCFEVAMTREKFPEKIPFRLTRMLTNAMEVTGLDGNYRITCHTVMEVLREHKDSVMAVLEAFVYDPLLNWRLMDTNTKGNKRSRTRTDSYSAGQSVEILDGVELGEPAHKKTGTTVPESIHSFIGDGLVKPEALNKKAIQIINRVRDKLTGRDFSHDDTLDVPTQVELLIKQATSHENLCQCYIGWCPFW
Chain of PI3K-alpha (PIK3CA/PIK3R1) (P42336 whole entry, looked up): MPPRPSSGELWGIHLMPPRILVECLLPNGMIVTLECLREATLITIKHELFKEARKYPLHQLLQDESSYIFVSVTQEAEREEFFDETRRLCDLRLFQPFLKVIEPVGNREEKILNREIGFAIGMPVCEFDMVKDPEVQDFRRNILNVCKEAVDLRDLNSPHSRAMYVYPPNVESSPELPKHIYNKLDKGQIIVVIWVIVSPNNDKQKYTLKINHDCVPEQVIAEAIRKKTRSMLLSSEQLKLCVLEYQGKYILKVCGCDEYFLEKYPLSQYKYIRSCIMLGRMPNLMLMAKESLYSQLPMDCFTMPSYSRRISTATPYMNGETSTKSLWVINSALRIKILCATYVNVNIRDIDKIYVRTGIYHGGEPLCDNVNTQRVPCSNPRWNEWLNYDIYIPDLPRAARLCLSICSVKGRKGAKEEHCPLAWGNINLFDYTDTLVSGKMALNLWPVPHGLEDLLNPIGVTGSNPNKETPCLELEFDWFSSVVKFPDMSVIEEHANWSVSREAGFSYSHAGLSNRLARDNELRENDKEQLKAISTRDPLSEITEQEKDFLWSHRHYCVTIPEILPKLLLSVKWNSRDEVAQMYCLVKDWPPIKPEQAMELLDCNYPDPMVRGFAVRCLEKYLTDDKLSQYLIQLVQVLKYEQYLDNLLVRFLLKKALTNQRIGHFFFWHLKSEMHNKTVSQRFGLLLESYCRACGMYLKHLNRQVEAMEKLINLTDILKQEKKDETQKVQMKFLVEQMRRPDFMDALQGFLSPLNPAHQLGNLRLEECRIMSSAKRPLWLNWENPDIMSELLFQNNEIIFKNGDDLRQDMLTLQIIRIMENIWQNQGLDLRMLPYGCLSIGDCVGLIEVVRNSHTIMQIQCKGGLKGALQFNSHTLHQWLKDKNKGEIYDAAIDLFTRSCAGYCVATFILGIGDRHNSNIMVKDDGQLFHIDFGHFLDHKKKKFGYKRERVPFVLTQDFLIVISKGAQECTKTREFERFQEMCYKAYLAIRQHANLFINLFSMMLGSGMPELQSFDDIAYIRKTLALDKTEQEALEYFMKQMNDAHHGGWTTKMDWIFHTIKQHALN
Chain of PI3K-alpha (PIK3CA/PIK3R1) (P27986 whole entry partner, looked up): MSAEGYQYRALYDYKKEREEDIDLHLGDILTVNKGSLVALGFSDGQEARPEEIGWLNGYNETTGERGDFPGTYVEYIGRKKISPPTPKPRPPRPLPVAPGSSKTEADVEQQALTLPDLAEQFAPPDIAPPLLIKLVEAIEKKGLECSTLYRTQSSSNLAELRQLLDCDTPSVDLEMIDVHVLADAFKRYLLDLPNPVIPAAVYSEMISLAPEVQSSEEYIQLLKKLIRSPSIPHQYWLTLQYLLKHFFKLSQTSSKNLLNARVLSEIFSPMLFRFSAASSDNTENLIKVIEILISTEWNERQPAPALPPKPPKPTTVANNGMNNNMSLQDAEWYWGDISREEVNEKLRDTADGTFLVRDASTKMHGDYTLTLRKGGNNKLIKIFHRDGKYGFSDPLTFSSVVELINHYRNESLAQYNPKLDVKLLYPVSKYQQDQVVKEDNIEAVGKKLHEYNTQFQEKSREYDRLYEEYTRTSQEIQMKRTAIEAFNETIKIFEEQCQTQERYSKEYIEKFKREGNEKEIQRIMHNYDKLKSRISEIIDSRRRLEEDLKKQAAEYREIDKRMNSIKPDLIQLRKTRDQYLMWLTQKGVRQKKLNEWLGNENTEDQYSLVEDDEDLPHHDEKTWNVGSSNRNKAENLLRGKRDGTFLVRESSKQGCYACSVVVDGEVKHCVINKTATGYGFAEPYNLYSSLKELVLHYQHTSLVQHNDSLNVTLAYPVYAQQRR

For the molecule `Cn1cc(-c2ccc(-c3ccc4ncc5c(c4c3)n([C@@H]3CCN(S(C)(=O)=O)C3)c(=O)n5C)cn2)cn1` [Example 27, (R)-3-methyl-8-(6-(1-methyl-1H-pyrazol-4-yl)pyridin-3-yl)-1-(1-(methanesulfonyl)pyrrolidin-3-yl)-1H-imidazo[4,5-c]quinolin-2(3H)-one], the EC50 with SK-BR3/BT474 is less than 1000 nM. Besides, the half-inhibitory concentration (IC50) is less than 10 nM in assay [1] and 100 to 1000 nM on mTOR kinase.
